In PMC9944496 (Food Chemistry: X, 2023):

Molecular target: T1, AbXOD (Acinetobacter baumannii xanthine oxidase; "wild-type" = AbXDH Y351V) (Acinetobacter baumannii, UniProt A0A0U3AJU6)
T1 construct: gene xdhB
Settings: 50 mmol/L Tris/HCl pH 8.5, 40 °C; apparent Km; paper's wild-type carries Y351V in A subunit; substrate inhibition constant; second site

In the case of `O=c1[nH]c(=O)c2[nH]cnc2[nH]1` [xanthine], the “Ki” value is reported as 21.11 mM.
